Measured values from patent US12440451B2, “Compositions and methods using an epigenetic inhibitor” (DANA-FARBER CANCER INSTITUTE, INC., priority 2017, dated 2025).

Tested on: B16-Ova cells
Experiment: in vitro 51Cr release cytotoxicity assay of activated OT-I+ CD8+ T cells against target cells
Type: cell-based, mouse
Conditions: for specific lysis of cells expressing target antigen: 4 hours co-incubation, FIG. 4A
Description: In order to functionally assess the phenotype of OT-I^+ CD8^+ T cells activated in the presence of RGFP966, the ability of the activated T cells to kill B16 melanoma tumor cell targets expressing the cognate SIINFEKL (SEQ ID NO: 1) antigen of the OT-I TCR was assayed. The B16-Ova cells were engineered to express chicken ovalbumin in their cytosol, and express SIINFEKL (SEQ ID NO: 1) on Kb MHC I molecules when treated with IFN-γ. In preparation for the cytotoxicity assay, B16-Ova cells were treated with 10 ng/ml IFN-γ for 48 hours prior to harvest and loading with ^51Cr radionuclide. After radiolabeling, B16-Ova cells were seeded into 96-well plates (5×10^3/well) and allowed to adhere for 1 hour prior to addition of CD8^+ effector cells. OT-I^+ CD8^+ T cells were activated as described above using SIINFEKL-pulsed BMDCs in the presence of 10 μM, 1 μM, or 0 μM RGFP966. After 7 days of activation, T cells were harvested, washed to remove the drug, and counted. OT-I^+ CD8^+ effector cells were added to the assay plates containing B16-Ova target cells at the indicated ratios: there was no drug present during the cytotoxicity assay. Specific killing of targets was assessed by measurement of 51Cr release into the culture supernatant 4 hours after co-culture. To verify that genetic ablation of HDAC3 functionally recapitulated the augmented cytotoxic effector phenotype of HDAC3 inhibition using RGFP966, HDAC3-KO T cells were generated from OT-I^+ CD8^+ Cas9^+ T cells as described above, and compared with RGFP966-treated T cells from the same batch in an in vitro cytotoxicity assay.

Question: What does the source list for `Nc1cc(F)ccc1NC(=O)/C=C/c1cnn(C/C=C/c2ccccc2)c1` [RGFP966]?
Answer: killing of cognate antigen-expressing target cells (T cells activated in the presence of the drug, dose-dependent): kill cognate antigen-expressing target cells more effectively than untreated cells; cytotoxicity compared with control treatment (T cells activated with 1 μM): modest but non-significant increase in cytotoxicity; specific lysis of cells expressing target antigen (T cells activated with 1 μM): about 45%; specific lysis of cells expressing target antigen (T cells activated with 10 μM): ~70%
